According to patent publication US8563690B2, “Modulation of platelet aggregation” (The Board of Trustees of the University of Illinois, priority 2008, dated 2013):
Residues, ends and D or L forms follow the SMILES beside them. *: point of attachment. Myristoyl = CCCCCCCCCCCCCC(=O)*

Experiments:
Type in all cases: cell-based, human
washed platelets = assay: Plasma-free platelet-mediated fibrin clot retraction with washed platelets; conditions: 1 mM
Experimental: FIG. 3A-B: Effects of myr-RGT on fibrin clot retraction and platelet aggregation. FIG. 3A: Platelets were washed and resuspended in HEPES buffer containing 2 mg/ml of human fibrinogen (see “Experimental Procedures”) and incubated with different peptides or their vehicles as indicated. Fibrin clot formation was initiated by adding 1 U/ml thrombin. Clot retraction was monitored over time and photographs of the clots were taken at different time points (lower panel). The asterisks indicate peptide concentration (* 62.5 μM; ** 125 μM; *** 250 μM). The histograms of the clot size were generated from the photographs by calculating the ratio of the surface area of the retracted clot versus that of the initial clot. […]
Platelet clot retraction is an essential step in platelet thrombus consolidation and is initiated following platelet activation as a late consequence of integrin outside-in signaling. […] Clot retraction was monitored over a 90 min time period by taking photographs at indicated time points using a digital camera. Clot retraction was quantified on the photographs by measuring the clot surface area with the NIH Image 1.67e software, and the data were processed using Excel 4.0. Results were expressed as percentage of retraction (%=area t/area t0×100%).

platelets [1] = test system: platelets
Experimental: (§1) FIG. 2A-C: Quantitative analysis of the effect of myristoylated RGT peptide on platelet stable adhesion and spreading on immobilized fibrinogen. FIG. 2A: Platelets were added to microtiter wells precoated with fibrinogen and allowed to adhere for 30 min at 37° C. The phosphatase activity in supernatants (open columns) or in adherent platelets (close columns) was quantified by a PNPP assay. Data of three experiments (means and SD) were presented as the ratio of the phosphatase activity of platelet samples over blank. The asterisks indicate peptide concentration (* 62.5 μM; ** 125 μM; *** 250 μM). […] The phosphatase activity in supernatants (open columns) or in remaining platelet suspensions (close columns) was quantified by a PNPP assay. […] For quantitative analysis of the effect of the RGT peptide on platelet adhesion, we used a phosphatase assay. […] Nonadherent platelets were removed by three vigorous washes with phosphate-buffered saline (PBS), and adherent platelets were quantified by a phosphatase assay. In addition, to monitor peptide-dependent platelet lysis, the platelet phosphatase activity was separately measured in the supernatant of the platelets in suspension or following their adhesion to fibrinogen by mixing with PNPP substrate solution (100 mM sodium acetate, 1% Triton X-100, 3 mg/ml p-nitrophenyl phosphate) for 60 min at 37° C. […]

platelets [2] = assay: Platelet stable adhesion on immobilized fibrinogen (phosphatase assay); conditions: 62.5-250 μM
Experimental: as §1

RGDS was tested, and the “inhibition of clot retraction” value (washed platelets) was “inhibit clot retraction”.
For `CCCCCCCCCCCCCC(=O)N[C@@H](CCCNC(=N)N)C(=O)NCC(=O)N[C@H](C(=O)O)[C@@H](C)O` [myr-RGT] (Myristoyl-Arg-Gly-Thr-OH; N-terminus and C-terminus assumed), the platelet lysis (platelets [1]) was “did not induce platelet lysis”.
With `CCCCCCCCCCCCCC(=O)O` [myristic acid, tetradecanoic acid] the “effect on platelet stable adhesion on immobilized fibrinogen” value (platelets [2]) was “no significant inhibitory effect”.
